# In patent US6083920A, “Compositions for modulating intracellular inositol trisphosphate concentration” (priority 1996, dated 2000):
# Several values for one entry are separate records, joined by “and”; a condition that tells them apart may be missing. Identical values can stand only once. Entries after “also recorded” stand apart in the source; their conditions may differ.
# Tests used:
# hippocampal neurons = experiment: Histological analysis of brain 7 days after ICV infusion (cresyl violet); type: in vivo, male F344 rats; settings: rat
# Method: (§1) Before administering various compounds, the animals were anesthetized with sodium pentobarbital (50 mg/kg, i.p.) and positioned in a sterotaxic instrument. A 26 gauge cannula was inserted into the cerebral ventricle at the following co-ordinates: 1.0 mm posterior to bregma, 1.5 mm lateral to the midline, and 4.0 mm below the dorsal surface of the neocortex. Cannulas were capped and fixed in place with dental cement. One week after cannulation, 10 μl of each of the treatment drugs was infused, ICV (i.e. into the ventricals of the brain), via a micropump at a rate of 10 μl/min. For this procedure, the animals were lightly restrained and unanesthetized. Following administration of the compound, the infusion cannula remained in position for one minute, after which the permanent in situ cannula was capped.
# Seven days after the compounds were administered, animals were sacrificed by transcardial perfusion with neutralized, buffered 10% formalin-saline. Their brains were removed, post-fixed overnight in 10% formalin-saline, and sectioned along the coronal plane (into 50 μm thick sections) on a freezing microtome. The sections were stained with cresyl violet to determine the extent of cellular destruction. […]
# Given that high concentrations of metabotropic receptors are located in the hippocampus, and that the hippocampus is particularly vulnerable to the effects of a variety of insults including ischemia and hypoxia, this region was examined for evidence of neuronal degeneration due to glutamate excitotoxicity.
# [1] = tested on: metabotropic glutamate receptor; experiment: Behavioral analysis after ICV infusion (quisqualate excitotoxicity); type: in vivo, male F344 rats; settings: for effective dose: ICV, pilot testing; for death, cases: 120 min; for convulsant behavior, compound alone: no quisqualate
# Method: The animals used in this experiment were male F344 rats (Charles River Breeding Laboratories). The animals were housed individually, exposed to a 12-hour light-dark cycle, and allowed free access to food and water. The animals weighed approximately 250 g at the beginning of each experiment and were weighed daily. In addition, the animals were habituated to handling before each experiment.
# as §1
# The compounds administered were obtained from a commercial supplier (Sigma Chemical Co., St. Louis, Mo.) and dissolved in saline prior to injection. […]
# Pilot studies identified several specific behavioral measures that could be used to indicate excessive activation of the metabotropic receptor (see Table 3). […] The experiments that follow were based on an analysis of these behaviors over a two hour period after administration of the compounds of the invention. Behavioral observation was carried out by two trained observers, who worked independently of one another and who were blind to the experimental groups. […] Frequency and duration means were computed by subtracting pre-infusion means from post-infusion means.
# Some of the experiments that were performed first were carried out to determine the amount of quisqualate required to produce behavioral and histological changes and the amount of lysosphingolipids that could effectively prevent or reverse these effects. Table 3 outlines the behavioral responses of rats to various doses of quisqualate (injected as described above) and the associated histological changes. The behaviors are listed as they occur chronologically. The limb clasp and reflex tests indicate the degree of decortication. A limb clasp or placement score of zero is normal, and a score of 3 is severely abnormal.
# The data shown in Table 4 represents the observations of pilot studies aimed at determining the effect (on behavior) of lysosphingolipids infused directly into the lateral ventricles of the brain 30 minutes prior to infusion of quisqualate.
# The experiment began one week after ICV cannulation. Animals (n=6 per group) were randomly allocated to one of 8 treatment groups: (1) saline, (2) quisqualate at 225 nmoles, (3) psychosine at 125 nmoles, (4) lysosphingomyelin at 125 nmoles, (5) lysosphingomyelin at 150 nmoles, (6) quisqualate at 225 nmoles and psychosine at 125 nmoles, (7) quisqualate at 225 nmoles and lysosphingomyelin at 125 nmoles, and (8) quisqualate at 225 nmoles and lysosphingomyelin at 150 nmoles. Following the baseline observation period, animals received the first of two ICV infusions (all infusions were of a 10 μl volume that was administered over a 1 minute period). For the first five groups listed above, this consisted of saline (10 μl/minute), for the following 3 groups the infusions were psychosine at 125 nmoles, lysosphingomyelin at 125 nmoles, or Iysosphingomyelin at 150 nmoles, respectively. Thirty minutes later, all animals received the second infusion which, for the first five groups listed above, consisted of saline, quisqualate at 225 nmoles, psychosine at 125 nmoles, lysosphingomyelin at 125 mrnoles, and lysosphingomyelin at 150 nmoles respectively. […]
# [2] = tested on: phospholipase C isoforms beta, delta, and gamma; settings: for effect on KM for substrate phosphatidylinositol bis-phosphate: 10 μM lysocerebroside, 5 μM lysosphingomyelin
# Method: The effects of sphingosine, lysocerebroside, and lysosphingomyelin on the kinetics of pure, immunologically isolated phospholipase C isoforms beta, delta, and gamma (which are commercially available) was examined. For each isoform, 10 μM sphingosine was added to a reaction medium consisting of 1 μg phospholipase C isoform/ml, Tris-malate buffer (50 mM, pH 7.0) containing 100 μM phosphatidyl inositol bis-phosphate tri-ammonium salt, 0.01 μCi tritium labeled phosphatidyl inositol bis-phosphate, 100 mM NaCl, 10 mM CaCl2, and 5 mM 2-merceptoethanol.
# [3] = Lysosphingolipid loading of isolated neuronal plasma membrane; type: in vitro ADME, chick; settings: Plasma Membrane Suspension, 10 μmolar exposure
# Text: Total lipids were removed from the neuron samples by repeated extraction with chloroforn:methanol (2:1, vol:vol). […] The recovered lysosphingolipids were stably tagged with NBDZF by the rapid procedure of Nozowa et al. (supra). The fluorescence tagged neuronal lysosphingolipids were separated in parallel with reference standards NBDZF-Sph, NBDZF-Psy, and NBDZF-Lsm on high performance silica gel thin layer chromatography plates with acetonitrile:H2 O (10:0.5, vol:vol). The highly fluorescent, well separated bands were scraped from the plate. The fluorescence tagged lysosphingolipids are eluted from the scraped silica gel with methanol:1 N HCl (1:0.02, vol:vol). The fluorescence tagged lysosphingolipid eluates were quantitated against reference standards by fluorescence measurement in a Perkin-Elmer LS-5 Fluorescence Spectrometer.
# Physiologically active phospholipase C is present on the endofacial portion of the plasma membrane. A procedure for examining its activity in an intact membrane is provided. […] One hundred Petri dishes of cultured cortical neurons were incubated overnight with 50 μCi [^3 H]myo-inositol per mL of culture medium. […] The collected neurons were homogenized in 5 mL 0.32 M sucrose and centrifuged at 1000×g for 15 minutes. The supernatant was layered on top of 2 ml 1.2 M sucrose and centrifuged at 300,000×g for 20 minutes. The sedimented pellet was resuspended by sonication for 10 seconds in 50 mM Tris buffer (pH 7.4), containing 0.3 μM CaCl2, 1 mM MgCl2, and 0.01% ascorbic acid.
# The suspended plasma membrane preparation was apportioned into 250 μl samples, each providing approximately 100 μg membrane protein. Sphingosine, psychosine, and lysosphingomyelin were added to each plasma membrane sample. […] Samples were analyzed for lysosphingolipid loading (i.e., membrane lysosphingolipid content following exposure to exogenous sphingolipid) by fluorescence tagging. […] Values are reported in pmoles lysosphingolipid/mg plasma membrane protein.
# [4] = Quisqualate 225 nmoles ICV, rat
# [5] = Quisqualate 250 nmoles ICV, rat
# [6] = 10 μM lysocerebroside or 5 μM lysosphingomyelin
smiles,measurement,setting,value
"N[C@@H](Cn1oc(=O)[nH]c1=O)C(=O)O [Quisqualate, quisqualate]",HISTOLOGICAL CHANGES,hippocampal neurons; Quisqualate 100 nmoles ICV,none observed
same,HISTOLOGICAL CHANGES,hippocampal neurons; Quisqualate 150 nmoles ICV,none observed
same,HISTOLOGICAL CHANGES,"hippocampal neurons; Quisqualate 225 nmoles ICV, seven days after application",loss of CA1
same,HISTOLOGICAL CHANGES,"hippocampal neurons; Quisqualate 225 nmoles ICV, seven days after application, listed as quisqualate",severe loss of neurons in the hippocampus; also recorded: considerable loss of CA1 pyramidal neurons in the hippocampus
same,HISTOLOGICAL CHANGES,"hippocampal neurons; Quisqualate 250 nmoles ICV, seven days after application, listed as quisqualate",severe loss of neurons in the hippocampus
same,HISTOLOGICAL CHANGES,hippocampal neurons; Quisqualate 500 μmoles ICV,loss of neurons
same,effective dose,[1]; rat,225 nmol
same,BEHAVIOR,"[1]; Quisqualate 100 nmoles ICV, rat",teeth chatter; also recorded: mild scratching; also recorded: hind leg weakness 60 minutes
same,placement and clasp reflex score,"[1]; Quisqualate 100 nmoles ICV, score zero is normal, 3 is severely abnormal",0
same,BEHAVIOR,"[1]; Quisqualate 150 nmoles ICV, rat",teeth chatter; also recorded: localized twitches; also recorded: mild hyperactivity walking in circles; also recorded: hind leg weakness for 60 minutes
same,BEHAVIOR,"[1]; Quisqualate 150 nmoles ICV, rat, listed as quisqualate",increase in activity and teeth chattering
same,placement and clasp reflex score,"[1]; Quisqualate 150 nmoles ICV, score zero is normal, 3 is severely abnormal",0
same,BEHAVIOR,"[1]; Quisqualate 200 nmoles ICV, rat",teeth chatter; also recorded: occasional mild convulsions; also recorded: hyperactivity - circle walking; also recorded: episodic akinesia/tonic immobility; also recorded: hind leg weakness
same,limb clasp and placement reflex score,"[1]; Quisqualate 200 nmoles ICV, score zero is normal, 3 is severely abnormal",0
same,BEHAVIOR,[1]; [4],teeth chatter; also recorded: hind leg paralysis; also recorded: hyperactivity/walk in circles; also recorded: full body convulsions - moderate; also recorded: localized spasms twitching/jerking; also recorded: episodic akinesia/tonic immobility; also recorded: respiratory distress; also recorded: foaming at mouth
same,"death, cases",[1]; [4],60%
same,BEHAVIOR,"[1]; Quisqualate 225 nmoles ICV, rat, listed as quisqualate",moderate convulsions
same,placement and clasp reflex score,"[1]; Quisqualate 225 nmoles ICV, score zero is normal, 3 is severely abnormal",1-2
same,BEHAVIOR,[1]; [5],vocalization; also recorded: teeth chattering; also recorded: scratching; also recorded: localized spasms jerking/twitching; also recorded: full body convulsions-severe/repeated; also recorded: foaming at mouth; also recorded: respiratory distress
same,"death, cases",[1]; [5],75%
same,BEHAVIOR,"[1]; Quisqualate 250 nmoles ICV, rat, listed as quisqualate",severe convulsions and death
same,placement and clasp reflex score,"[1]; Quisqualate 250 nmoles ICV, score zero is normal, 3 is severely abnormal",3
same,BEHAVIOR,"[1]; Quisqualate 1 μmoles ICV, rat",severe repeated full body convulsions; also recorded: severe scratching; also recorded: severe teeth chattering; also recorded: foaming at mouth
same,time to death,"[1]; Quisqualate 1 μmoles ICV, rat",5 to 15 min
same,"death, cases","[1]; Quisqualate 1 μmoles ICV, rat",100%
same,BEHAVIOR,"[1]; Quisqualate 500 μmoles ICV, rat",vocalization
same,"duration of teeth chattering, akinesia and mobilization versus lysosphingolipid-alone groups and quisqualate + lysosphingomyelin 150 nmoles",[1]; quisqualate alone 225 nmoles ICV,significantly (p<.01) more time engaged in these behaviors
same,number of convulsions/spasms compared to all other groups,"[1]; quisqualate alone at 225 nmoles ICV, 2 hours observation, n=6",significantly (p.<01) more convulsions/spasms
"CCCCCCCCCCCCC/C=C/[C@@H](O)[C@@H](N)COP(=O)([O-])OCC[N+](C)(C)C [lysosphingomyelin, sphingosyl phosphoryicholine]",diminution in Vmax,[2]; [6],60%±10%
same,increase in calcium ion concentration required for optimal activity,[2]; [6],5 fold
same,effect on KM for substrate phosphatidylinositol bis-phosphate,[2]; 10 μM sphingosine,no change
same,"membrane lysosphingolipid content, 0 hours of incubation",[3],5 ± 1 pmoles lysosphingolipid/mg pla
same,"membrane lysosphingolipid content, 0.5 hours of incubation",[3],65 ± 15 pmoles lysosphingolipid/mg pla
same,"membrane lysosphingolipid content, 1.0 hours of incubation",[3],110 ± 15 pmoles lysosphingolipid/mg pla
same,"membrane lysosphingolipid content, 2.0 hours of incubation",[3],120 ± 10 pmoles lysosphingolipid/mg pla
same,"membrane lysosphingolipid content, 3.0 hours of incubation",[3],145 ± 25 pmoles lysosphingolipid/mg pla
same,"convulsant behavior, compound alone",[1]; 125 nmoles ICV,displayed no convulsant behavior
same,"convulsant behavior, compound alone",[1]; 150 nmoles ICV,displayed no convulsant behavior
same,effective dose,[1]; rat,125 nmol and 150 nmol
same,sedation produced by the lysosphingolipid,[1]; Lysosphingomyelin 150 nmoles ICV,mild sedation
same,behavioral or neurotoxic effects of the compound itself,[1]; doses as high as 125 nmoles per animal ICV,no behavioral or neurotoxic effects were observed
same,behavioral and histological changes caused by quisqualate,"[1]; pretreated with 125 nmoles ICV, rat",absent
same,number of convulsions or spasms,"[1]; pretreatment 125 nmoles ICV 30 minutes before quisqualate 225 nmoles, n=6",significantly (p<01) attenuated
same,number of convulsions or spasms,"[1]; pretreatment 150 nmoles ICV 30 minutes before quisqualate 225 nmoles, n=6",significantly (p<01) attenuated
same,"time quisqualate-alone animals spent in teeth chattering, akinesia and mobilization compared with this group",[1]; quisqualate 225 nmoles and lysophingomyelin 150 nmoles ICV,significantly (p<.01) more time
CCCCCCCCCCCCC/C=C/[C@@H](O)[C@@H](N)CO [sphingosine],calcium ion concentration required for optimal activity,[2]; 10 μM sphingosine,decrease
same,effect on KM for substrate phosphatidylinositol bis-phosphate,[2]; 10 μM sphingosine,no effect
same,"membrane lysosphingolipid content, 0 hours of incubation",[3],105 ± 5 pmoles lysosphingolipid/mg pla
same,"membrane lysosphingolipid content, 0.5 hours of incubation",[3],113 ± 15 pmoles lysosphingolipid/mg pla
same,"membrane lysosphingolipid content, 1.0 hours of incubation",[3],140 ± 15 pmoles lysosphingolipid/mg pla
same,"membrane lysosphingolipid content, 2.0 hours of incubation",[3],165 ± 20 pmoles lysosphingolipid/mg pla
same,"membrane lysosphingolipid content, 3.0 hours of incubation",[3],175 ± 25 pmoles lysosphingolipid/mg pla
